Assay results: article PMC12095788 (Communications Chemistry, 2025)

How the values were obtained:
Gal4-Nurr1 I500F = biological target: T1, Gal4-Nurr1 I500F (Homo sapiens, UniProt P43354, I500F); assay: Gal4-Nurr1 hybrid reporter gene assay, mutant I500F; format: cell-based; conditions: vs wt
T1 construct: expressed in transfected cells; host or cells: HEK293T

Gal4-Nurr1 H372F = biological target: T2, Gal4-Nurr1 H372F (Homo sapiens, UniProt P43354, H372F); assay: Gal4-Nurr1 hybrid reporter gene assay, mutant H372F; format: cell-based; conditions: vs wt
T2 construct: expressed in transfected cells; host or cells: HEK293T
T2 sequence (P43354 360-595 H372F limits assumed): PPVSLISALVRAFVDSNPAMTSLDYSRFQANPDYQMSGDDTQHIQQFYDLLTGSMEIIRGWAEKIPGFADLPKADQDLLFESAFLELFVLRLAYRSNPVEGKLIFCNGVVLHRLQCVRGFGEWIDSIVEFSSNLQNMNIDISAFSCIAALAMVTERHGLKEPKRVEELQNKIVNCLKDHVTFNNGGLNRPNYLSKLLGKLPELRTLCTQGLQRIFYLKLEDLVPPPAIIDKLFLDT

Gal4-Nurr1 I500W/V373W = biological target: T3, Gal4-Nurr1 I500W/V373W (Homo sapiens, UniProt P43354, I500W/V373W); assay: Gal4-Nurr1 hybrid reporter gene assay, double mutant I500W/V373W; format: cell-based; conditions: fold reporter activation vs. DMSO
T3 construct: expressed in transfected cells; host or cells: HEK293T
T3 sequence (P43354 360-595 V373W/I500W limits assumed): as the sequence (P43354 360-595 H372F limits assumed) above, with F13H, V14W, I141W counted along it

Nurr1 LBD - CoREST = biological target: T4, Nurr1 LBD - CoREST (Homo sapiens, UniProt P43354); assay: HTRF co-regulator recruitment assay, CoREST; format: biochemical; conditions: biotinylated CoREST peptide, sGFP-Nurr1 LBD
T4 construct: sGFP-Nurr1[26]; LBD as FRET acceptor; made in house
T4 sequence (P43354 360-595 limits assumed): as the sequence (P43354 360-595 H372F limits assumed) above, with F13H counted along it
From the text: (§1) Homogeneous time-resolved fluorescence energy transfer (HTRF) experiments were used to study the recruitment of co-regulator peptides to the Nurr1-LBD in the presence or absence of test compounds. Terbium cryptate as streptavidin conjugate (Tb-SA; Cisbio Bioassays, Codolet, France) was used as FRET donor for stable coupling to biotinylated recombinant Nurr1 LBD protein. Fluorescein-labeled co-regulator peptides were used as FRET acceptors (peptide sequences are reported in Supplementary Tab. 4). […] Recruitment of CoREST and Lmx1b peptides was studied using biotin-labeled peptides for stable coupling to Tb-SA as FRET donor and sGFP-Nurr1[26] LBD as FRET acceptor. […] Experiments were carried out in 384 well format using white flat bottom small volume polystyrol microtiter plates (Greiner Bio-One, Frickenhausen, Germany). After 2 h incubation at rt, fluorescence intensities (FI) after excitation at 340 nm were recorded at 520 nm for fluorescein acceptor fluorescence and 620 nm for Tb-SA donor fluorescence on a SPARK plate reader (Tecan Group Ltd.). FI520 nm was divided by FI620 nm and multiplied with 10,000 to give a dimensionless HTRF signal.

Nurr1 LBD (wt) [1] = biological target: T5, Nurr1 LBD (wt) (Homo sapiens, UniProt P43354); assay: ITC ligand binding to Nurr1 wt LBD; conditions: for n ligand binding to Nurr1 LBD: ITC stoichiometry; for n ligand binding to Nurr1 LBD / TΔS ligand binding to Nurr1 LBD: wt LBD
Target sequence in this assay (P43354 360-595 limits assumed): as the sequence (P43354 360-595 H372F limits assumed) above, with F13H counted along it

[2] = biological target: T6, Gal4-Nurr1 (wt human Nurr1 LBD) (Homo sapiens, UniProt P43354); assay: Gal4-Nurr1 hybrid reporter gene assay (wild-type); format: cell-based
T6 construct: expressed in transfected cells; host or cells: HEK293T
T6 sequence (P43354 360-595 limits assumed): as the sequence (P43354 360-595 H372F limits assumed) above, with F13H counted along it

[3] = biological target: full-length human Nurr1 (NBRE) (Homo sapiens, UniProt P43354); assay: Full-length Nurr1 reporter gene assay, monomer response element (NBRE); format: cell-based
full-length human Nurr1 (NBRE), sequence (P43354 whole entry): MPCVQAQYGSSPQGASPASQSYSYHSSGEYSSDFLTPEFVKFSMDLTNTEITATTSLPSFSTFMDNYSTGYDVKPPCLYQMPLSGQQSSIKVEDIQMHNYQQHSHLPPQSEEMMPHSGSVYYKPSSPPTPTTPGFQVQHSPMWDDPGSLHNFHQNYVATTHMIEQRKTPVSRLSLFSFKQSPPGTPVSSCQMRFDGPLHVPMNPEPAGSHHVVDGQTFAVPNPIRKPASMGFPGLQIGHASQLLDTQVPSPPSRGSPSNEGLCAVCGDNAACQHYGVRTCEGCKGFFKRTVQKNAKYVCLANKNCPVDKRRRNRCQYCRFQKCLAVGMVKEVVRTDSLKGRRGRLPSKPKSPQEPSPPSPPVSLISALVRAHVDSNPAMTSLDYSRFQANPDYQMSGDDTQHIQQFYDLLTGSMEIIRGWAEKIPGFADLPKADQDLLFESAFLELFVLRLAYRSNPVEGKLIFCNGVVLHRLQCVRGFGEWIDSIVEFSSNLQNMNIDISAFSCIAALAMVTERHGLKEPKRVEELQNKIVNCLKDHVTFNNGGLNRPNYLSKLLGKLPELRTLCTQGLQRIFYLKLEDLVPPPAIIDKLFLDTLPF

[4] = biological target: full-length human Nurr1 (NurRE) (Homo sapiens, UniProt P43354); assay: Full-length Nurr1 reporter gene assay, homodimer response element (NurRE); format: cell-based
full-length human Nurr1 (NurRE), sequence (P43354 whole entry): as above

[5] = biological target: full-length human Nurr1 / RXR heterodimer (DR5) (Homo sapiens, UniProt P43354); assay: Full-length Nurr1 reporter gene assay, RXR-heterodimer response element (DR5); format: cell-based
full-length human Nurr1 / RXR heterodimer (DR5), sequence (P43354 whole entry, the tested form may be a part, one chain of several): as the sequence (P43354 whole entry) above

Nurr1 LBD - NCOR1 = biological target: T7, Nurr1 LBD - NCOR1 (Homo sapiens, UniProt P43354); assay: HTRF co-regulator recruitment assay, NCOR1; format: biochemical; conditions: fluorescein labeled corepressor peptide, read-out: IC50 NCOR1 displacement from Nurr1 LBD
T7 construct: a plasmid construct encoding Nurr1 (aa 364-598) in a pMal vector system; MBP (cleaved yes); made in house; host or cells: E. coli BL21-R3-pRARE2
T7 sequence (P43354 364-598): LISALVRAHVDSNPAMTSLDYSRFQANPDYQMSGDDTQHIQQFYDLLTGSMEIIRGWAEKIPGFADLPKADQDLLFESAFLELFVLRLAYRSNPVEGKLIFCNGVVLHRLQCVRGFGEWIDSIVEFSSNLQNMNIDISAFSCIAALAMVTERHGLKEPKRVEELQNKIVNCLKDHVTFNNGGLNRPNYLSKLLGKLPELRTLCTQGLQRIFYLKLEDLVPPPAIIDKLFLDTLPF
From the text: as §1

Nurr1 LBD - SMRT = biological target: T8, Nurr1 LBD - SMRT (Homo sapiens, UniProt P43354); assay: HTRF co-regulator recruitment assay, SMRT; format: biochemical; conditions: fluorescein labeled corepressor peptide, read-out: IC50 SMRT displacement from Nurr1 LBD
T8 construct: a plasmid construct encoding Nurr1 (aa 364-598) in a pMal vector system; MBP (cleaved yes); made in house; host or cells: E. coli BL21-R3-pRARE2
T8 sequence (P43354 364-598): as above
From the text: as §1

Nurr1 LBD - PIASγ = biological target: T9, Nurr1 LBD - PIASγ (Homo sapiens, UniProt P43354); assay: HTRF co-regulator recruitment assay, PIASγ; format: biochemical; conditions: fluorescein labeled corepressor peptide, read-out: IC50 PIASγ displacement from Nurr1 LBD
T9 construct: a plasmid construct encoding Nurr1 (aa 364-598) in a pMal vector system; MBP (cleaved yes); made in house; host or cells: E. coli BL21-R3-pRARE2
T9 sequence (P43354 364-598): as above
From the text: as §1

Nurr1 LBD - NRIP = biological target: T10, Nurr1 LBD - NRIP (Homo sapiens, UniProt P43354); assay: HTRF co-regulator recruitment assay, NRIP; format: biochemical; conditions: fluorescein labeled coactivator peptide, read-out: IC50 NRIP displacement from Nurr1 LBD
T10 construct: a plasmid construct encoding Nurr1 (aa 364-598) in a pMal vector system; MBP (cleaved yes); made in house; host or cells: E. coli BL21-R3-pRARE2
T10 sequence (P43354 364-598): as above
From the text: as §1

Nurr1 LBD - NCoA6 = biological target: T11, Nurr1 LBD - NCoA6 (Homo sapiens, UniProt P43354); assay: HTRF co-regulator recruitment assay, NCoA6; format: biochemical; conditions: fluorescein labeled coactivator peptide, read-out: IC50 NCoA6 displacement from Nurr1 LBD
T11 construct: a plasmid construct encoding Nurr1 (aa 364-598) in a pMal vector system; MBP (cleaved yes); made in house; host or cells: E. coli BL21-R3-pRARE2
T11 sequence (P43354 364-598): as above
From the text: as §1

Nurr1 LBD - Lmx1b = biological target: T12, Nurr1 LBD - Lmx1b (Homo sapiens, UniProt P43354); assay: HTRF co-regulator recruitment assay, Lmx1b; format: biochemical; conditions: biotinylated Lmx1b peptide, sGFP-Nurr1 LBD
T12 construct: sGFP-Nurr1[26]; LBD as FRET acceptor; made in house
T12 sequence (P43354 360-595 limits assumed): as the sequence (P43354 360-595 H372F limits assumed) above, with F13H counted along it
T12 sequence (O60663 382-402 partner limits assumed): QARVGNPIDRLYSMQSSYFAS
From the text: as §1

[6] = biological target: T13, Nurr1 LBD - RXRα LBD heterodimer (Homo sapiens, UniProt P43354); assay: ITC Nurr1-RXR dimerization; conditions: ITC stoichiometry, ligand 200 µM
T13 sequence (P43354 364-598, one chain of several): as the sequence (P43354 364-598) above

[7] = biological target: T13, Nurr1 LBD - RXRα LBD heterodimer; assay: HTRF Nurr1-RXRα heterodimer formation assay; format: biochemical; parameters: a plasmid construct encoding Nurr1 (aa 364-598) in a pMal vector system; MBP (cleaved yes); made in house; host or cells: E.coli BL21-R3-pRARE2 (biotinylated Nurr1 LBD)
Method: Assay solutions were prepared in HTRF assay buffer supplemented with 0.1% (w/v) CHAPS as well as 1% DMSO with test compounds at fixed concentrations or DMSO alone as negative control (apo). […] Samples were equilibrated at RT for 2 h before FI520 and FI620 were recorded after excitation at 340 nm, and the HTRF signal was calculated as described above.

Nurr1 LBD (wt) [8] = biological target: T5, Nurr1 LBD (wt); assay: Binding kinetics by biolayer interferometry (BLI); parameters: For generation of biotinylated Nurr1 a plasmid construct encoding Nurr1 (aa 364-598) in a pMal vector system; MBP (cleaved yes); made in house; host or cells: E.coli BL21-R3-pRARE2; conditions: read-out: dissociation rate koff
Target sequence in this assay (P43354 364-598): as above
Method: BLI measurements were conducted using the Octet R8 instrument (Sartorius). Nurr1 was enzymatically biotinylated using BirA, and Super Streptavidin (SSA) sensors were used to capture the biotinylated Nurr1. Prior to the assay, SSA sensors were pre-soaked for 10 minutes in a buffer containing 20 mM HEPES (pH 7.4), 150 mM NaCl, 0.01% Tween-20, and 0.5% DMSO. The sensors were then loaded with 2 μM biotinylated Nurr1 for 10 min, reaching a response of ~10 nm. Free biotin sites were blocked by incubating the sensors with 20 μg/ml biocytin for 1 minute. After quenching, the sensors were washed for 20 min with HEPES buffer and equilibrated for 5 min in the same buffer supplemented with 1% PEG3K. The binding of compounds was monitored for 120 s, followed by a 120 s dissociation phase. Two control experiments were conducted: one with sensors coated with the protein but without the compound, and the other with uncoated biosensors exposed to the compound at corresponding concentrations. These controls were used to correct for non-specific binding and baseline interference.

T1 sequence (P43354 360-595 I500F limits assumed): as the sequence (P43354 360-595 H372F limits assumed) above, with F13H, I141F counted along it

## CC(C)n1c(/C=C/C(O)CC(O)CC(=O)O)c(-c2ccc(F)cc2)c2ccccc21 (stereo not shown) [fluvastatin, reference compound]
Gal4-Nurr1 I500F
  effect of I500F mutation on Nurr1 activation by the ligand: did not alter
Gal4-Nurr1 H372F
  effect of H372F mutation on Nurr1 activation by the ligand: did not alter
Gal4-Nurr1 I500W/V373W
  activation of Gal4-Nurr1 double mutant I500W/V373W: responded
Nurr1 LBD - CoREST
  effect on CoREST recruitment to Nurr1 LBD: slightly reduced
Nurr1 LBD (wt) [1]
  n ligand binding to Nurr1 LBD: 0.90±0.04
Nurr1 LBD (wt) [1]; ITC
  TΔS ligand binding to Nurr1 LBD: 3.7 ± 0.3 kcal/mol

## O=C(O)C1=C(C(=O)Nc2ccc(-c3ccccc3OCc3ccccc3)cc2F)CCC1 [compound 1, 2-{[2’-(Benzyloxy)-3-fluoro-[1,1’-biphenyl]-4-yl]carbamoyl}cyclopent-1-ene-1-carboxylic acid]
[2]; HEK293T, Gal4 hybrid reporter, wt
  EC50: 30 ± 10 nM
[2]; higher potency than vidofludimus
  potency on Gal4-Nurr1 relative to vidofludimus: 10 fold
[3]
  EC50: 60 ± 10 nM
[4]
  EC50: 70 ± 10 nM
[5]
  EC50: 60 ± 10 nM
Nurr1 LBD - NCOR1
  IC50: 4000 ± 1000 nM
Nurr1 LBD - SMRT
  IC50: 5000 ± 2000 nM
Nurr1 LBD - PIASγ
  IC50: 12000 ± 2000 nM
Nurr1 LBD - NRIP
  IC50: 7000 ± 2000 nM
Nurr1 LBD - NCoA6
  IC50: 7000 ± 2000 nM
Nurr1 LBD - CoREST
  effect on CoREST recruitment to Nurr1 LBD: slightly reduced
Nurr1 LBD - Lmx1b
  effect on Lmx1b recruitment to Nurr1 LBD: no effect
[6]
  n Nurr1 LBD – RXR LBD: 0.98±0.09
Nurr1 LBD (wt) [1]
  Kd: 110 nM
  n ligand binding to Nurr1 LBD: 1.00±0.04
Nurr1 LBD (wt) [1]; ITC
  TΔS ligand binding to Nurr1 LBD: -5.5 ± 1.8 kcal/mol
Nurr1 LBD (wt) [1]; enhanced affinity vs vidofludimus, ITC
  affinity to Nurr1 LBD relative to vidofludimus: 7 fold
[7]
  effect on Nurr1-RXR heterodimerization: weakened
Nurr1 LBD (wt) [8]
  koff: 0.0224 s⁻¹
